We go through 7 molecules from patent publication US12600732B2, “Bifunctional compounds for degrading BTK via ubiquitin proteosome pathway” (NURIX THERAPEUTICS, INC., priority 2019, dated 2026).

In data set [1] the test system is TMD8 cells. Nature of the data set: Cell viability assay (CellTiter-Glo), TMD8 cells. The following applies: for EC50: Homo sapiens, TMD8, 72 h; for EMAX (% viable cells): TMD8 cells, treatment time 72 h.
Data set [2] relates to TMD8 C481S cells. As to the kind of experiment: Cell viability assay (CellTiter-Glo), TMD8 C481S cells. The following applies: for EC50: Homo sapiens, TMD8, 72 h; for EMAX (% viable cells): TMD8 C481S cells, treatment time 72 h.
Description: Cell viability was determined using CellTiter-Glo 2.0 Luminescent Cell Viability Assay (Promega, G9242), which quantitates the amount of ATP present as a proxy for the number of viable cells in culture. Cells were plated with densities between 2000-4000 cells per well in 96-well plates. […] CellTiter-Glo reagent was added to cells at a dilution of 1:20, and the plate was incubated ten minutes at room temperature prior to reading the luminescence signal using an EnVision plate reader. Controls included cells treated with DMSO and wells that contained no cells, only media. Background luminescence signal was determined by control wells containing no cells, only media, and was then subtracted from all sample wells. Luminescence values were then normalized to DMSO-treated wells and reported at proportion viable cells.
Data set [3] deals with BTK C481S (Homo sapiens, UniProt Q06187, C481S). Nature of the data set: BTK degradation (Total BTK HTRF) in TMD8 cells expressing BTK-C481S. It is filed as cell-based. Set-up: endogenous in cells; host or cells: TMD8 BTK-C481S (clone2C3), Cas9 RNP knock-in. The note with it: TMD8 BTK-C481S (clone2C3) cells, treatment time 4 h. The procedure: BTK levels were determined using Cisbio Total-BTK HTRF (Homologous Time-Resolved Fluorescence) kit (63ADK064PEG) according to the manufacturer's protocol. Briefly, cells were incubated in 1× supplied lysis buffer for 30 minutes. In an opaque white low volume 96-well plate (Cisbio, 66PL96005), cell lysate was combined with two different specific BTK antibodies, one conjugated with Eu^3+-Cryptate FRET donor and one conjugated with d2 FRET acceptor. Assay controls include wells containing cell lysate with only the Eu^3+-Cryptate FRET donor antibody and wells containing both HTRF antibodies and lysis buffer without cells or control lysate provided by Cisbio. HTRF ratio was calculated as (acceptor signal at 665 nm/donor signal at 620 nm)×10^4. Background HTRF levels were determined from the control well containing the donor, but no acceptor, antibody. Background HTRF levels were subtracted from all samples. Readouts were reported as HTRF levels relative to HTRF levels of DMSO-treated cells. Four-parameter non-linear regressions were performed in GraphPad Prism 7.02 to obtain DC50 values.
BTK Degradation (Total BTK HTRF) at Four Hours in TMD8 Cells Expressing BTK-C481S
This example evaluates the potency of CTM in degrading […]. The BTK binding moieties utilized in CTMs bind to the BTK active site. This example evaluates whether the active site mutation C481S affects CTM-induced degradation of BTK.

The target of data set [4] is T1, BTK (Mus musculus, UniProt P35991).
T1 construct: from tissue; host or cells: mouse blood B cells / splenocytes (CD-1 or BALB/c)
As to the kind of experiment: In vivo degradation of BTK in mouse PD experiments with oral dosing. The following applies: oral dose 30 mg/kg, 24 h. The method in brief:
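BTK in blood or splenocytes read by flow cytometry (or HTRF), degradation taken as B-cell minus T-cell BTK MFI versus vehicle. Mice (CD-1 or BALB/c) received compound orally, initially 90 mg/kg for 6 h, then lower doses and longer time points.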

For the molecule `CN1CCN([C@@H]2CCCN(c3cnc(C(N)=O)c(Nc4ccc(C5CCN(C6CN(Cc7ccc8c(c7)C(=O)N(C7CCC(=O)NC7=O)C8=O)C6)CC5)cc4)n3)C2)C1=O` (stereo partly drawn) [Compound 101], in data set [1], the midpoint of the response, the EC50, lay at 93.4 nM and the “EMAX (% viable cells)” value is reported as 27%. Moreover, in data set [2], the EC50 was 431 nM and the “EMAX (% viable cells)” value is given as 27%. The molecule also returned a DC50 in data set [3] of 4.3 nM.

Regarding `NC(=O)c1ncc(N2CCCC3(COC3)C2)nc1Nc1ccc(C2CCN(C[C@H]3CCN(c4ccc5c(c4)C(=O)N(C4CCC(=O)NC4=O)C5=O)C3)CC2)cc1` (stereo partly drawn) [Compound 126], the “% BTK Remaining” value in data set [4] (blood, flow cytometry) is recorded as 33%. The same molecule had a DC50 in data set [3] of 7.7 nM.

Turning to `CN1CCN([C@H]2CCCN(c3cnc(C(N)=O)c(Nc4ccc(C5CCN(CC6CCN(c7ccc(NC8CCC(=O)NC8=O)cn7)CC6)CC5)cc4)n3)C2)C1=O` (stereo partly drawn) [Compound 129], the “% BTK Remaining” value in data set [4] (blood, flow cytometry) is given as 16%. Further, in data set [1], the EC50 is 3.17 nM and the “EMAX (% viable cells)” value is listed as 16%. Besides, in data set [2], a half-maximal response (EC50) required 4.36 nM and the “EMAX (% viable cells)” value was found to be 14%. In data set [3], this molecule yielded a DC50 of 5.3 nM.

Turning to `NC(=O)c1ncc(N2CCCCC2)nc1Nc1ccc(C2CCN(CC3CCN(c4ccc5c(=O)n(C6CCC(=O)NC6=O)ccc5c4)CC3)CC2)cc1` (stereo not drawn) [Compound 133], the “% BTK Remaining” value in data set [4] (blood, flow cytometry) amounted to 10%. In data set [1], the midpoint of the response, the EC50, lay at 6.98 nM and the “EMAX (% viable cells)” value was determined as 15%. Also, in data set [2], a half-maximal response (EC50) required 6.83 nM and the “EMAX (% viable cells)” value was found to be 9%. The molecule further returned a DC50 in data set [3] of 8.3 nM.

`CN1CCN([C@@H]2CCCN(c3cnc(C(N)=O)c(Nc4ccc(C5CCN(CC6CCN(c7ccc8c(c7)n(C)c(=O)n8C7CCC(=O)NC7=O)CC6)CC5)cc4)n3)C2)C1=O` (stereo partly drawn) [Compound 156]: the DC50 in data set [3] came to 0.4 nM.

Regarding `CN1CCN([C@@H]2CCCN(c3cnc(C(N)=O)c(Nc4ccc(C5CCN(CC6CCN(c7ccc(NC8CCC(=O)NC8=O)nc7)CC6)CC5)cc4)n3)C2)C1=O` (stereo partly drawn) [Compound 166], the “% BTK Remaining” value in data set [4] (splenocytes, HTRF) amounted to 19%. The molecule further displayed a DC50 in data set [3] of 8.1 nM.

Take `NC(=O)c1ncc(N2CCCCC2)nc1Nc1ccc(C2CCN(CC3CCN(c4ccc(C(=O)NC5CCC(=O)NC5=O)nc4)CC3)CC2)cc1` (stereo not drawn) [Compound 182]: the “% BTK Remaining” value in data set [4] (splenocytes, HTRF) is on record as 12%. The molecule also yielded a DC50 in data set [3] of 14.5 nM.
